Measurements from patent US6737383B1, “Herbicidal oxadiazolidines” (priority 1999, dated 2004).

Columns and labels:
surinam grass = assay: Test B pre/postemergence surinam grass; format: in vivo, Brachiaria decumbens
Method in brief: (§1)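 Test chemicals in a non-phytotoxic solvent mixture with surfactant were sprayed preemergence onto planted seeds and postemergence onto plants 2 to 18 cm tall (1- to 4-leaf stage). After twelve to sixteen days in a greenhouse, injury was visually rated against untreated controls from 0 (no effect) to 10 (complete control).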

cocklebur = assay: Test B pre/postemergence cocklebur; format: in vivo, Xanthium strumarium
Method in brief: as §1

corn = assay: Test B pre/postemergence corn; format: in vivo, Zea mays
Method in brief: as §1

crabgrass = assay: Test B pre/postemergence crabgrass; format: in vivo, Digitaria sanguinalis
Method in brief: as §1

giant foxtail = assay: Test B pre/postemergence giant foxtail; format: in vivo, Setaria faberii
Method in brief: as §1

morningglory = assay: Test B pre/postemergence morningglory; format: in vivo, Ipomoea hederacea
Method in brief: as §1

pigweed = assay: Test B pre/postemergence pigweed; format: in vivo, Amaranthus retroflexus
Method in brief: as §1

rape = assay: Test B pre/postemergence rape; format: in vivo, Brassica napus
Method in brief: as §1

sugar beet = assay: Test B pre/postemergence sugar beet; format: in vivo, Beta vulgaris
Method in brief: as §1

wheat = assay: Test B pre/postemergence wheat; format: in vivo, Triticum aestivum
Method in brief: as §1

wild oat = assay: Test B pre/postemergence wild oat; format: in vivo, Avena fatua
Method in brief: as §1

purple nutsedge = assay: Test B pre/postemergence purple nutsedge; format: in vivo, Cyperus rotundus
Method in brief: as §1

rice = assay: Test B flood test rice; format: in vivo, Oryza sativa
Method in brief: (§2)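 Flood test on plants grown to the 2-leaf stage; treated plants kept in greenhouse twelve to sixteen days, then visually rated against controls on a 0 (no effect) to 10 (complete control) scale.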

smallflower flatsedge = assay: Test B flood test smallflower flatsedge; format: in vivo, Cyperus difformis
Method in brief: as §2

duck salad = assay: Test B flood test duck salad; format: in vivo, Heteranthera limosa
Method in brief: as §2

bamyardgrass = assay: Test B flood test barnyardgrass; format: in vivo, Echinochloa crus-galli
Method in brief: as §2

[1] = Preemergence, Rate 62 g/ha, scale of 0 to 10 where 0 is no effect and 10 is complete control
[2] = Preemergence, Rate 500 g/ha, scale of 0 to 10 where 0 is no effect and 10 is complete control
[3] = Rate 62 g/ha, Postemergence, scale of 0 to 10 where 0 is no effect and 10 is complete control
[4] = Rate 125 g/ha, Preemergence, scale of 0 to 10 where 0 is no effect and 10 is complete control
[5] = Rate 500 g/ha, Postemergence, scale 0 to 10, 0 no effect, 10 complete control
[6] = Preemergence, Rate 250 g/ha, scale of 0 to 10 where 0 is no effect and 10 is complete control
[7] = Rate 125 g/ha, Postemergence, scale 0 to 10
[8] = Rate 62 g/ha, headed Pre-emergence (flood test species), scale 0 to 10 (0 no effect, 10 complete control)
[9] = Rate 125 g/ha, Pre-emergence, flood test species, scale 0 to 10 where 0 is no effect and 10 is complete control
[10] = Rate 250 g/ha, Pre-emergence, flood-test species, scale 0 to 10, 0 is no effect, 10 is complete control
[11] = Rate 500 g/ha, Pre-emergence, flood test species, scale 0 to 10 (0 no effect, 10 complete control)

## CON=C(Cn1c(=O)on(C(=O)N(c2ccc(F)cc2)C(C)C)c1=O)C(F)(F)F [Compound 227]
Surinam grass; [1]
  B. signalgrass plant response rating: 0
Surinam grass; Preemergence, Rate 250 g/ha, scale 0 to 10, 0 is no effect, 10 is complete control
  B. signalgrass plant response rating: 0
Surinam grass; [2]
  Plant response rating, B. signalgrass: 2
Surinam grass; [3]
  B. signalgrass plant response rating: 0
Surinam grass; Rate 125 g/ha, Postemergence, scale 0 (no effect) to 10 (complete control)
  B. signalgrass plant response rating: 0
Surinam grass; [4]
  B. signalgrass plant response rating: 0
Surinam grass; Rate 250 g/ha, Postemergence
  Plant response rating (0 to 10; 0 is no effect, 10 is complete control), B. signalgrass: 0
Surinam grass; [5]
  B. signalgrass plant response rating: 0
cocklebur; [1]
  Cocklebur plant response rating: 0
cocklebur; [6]
  Cocklebur plant response rating: 0
cocklebur; [2]
  Plant response rating, Cocklebur: 0
cocklebur; [3]
  Cocklebur plant response rating: 0
cocklebur; [7]
  Cocklebur plant response rating: 0
cocklebur; [4]
  Cocklebur plant response rating: 0
cocklebur; Rate 250 g/ha, Postemergence
  Plant response rating (0 to 10; 0 is no effect, 10 is complete control), Cocklebur: 2
cocklebur; [5]
  Cocklebur plant response rating: 3
corn; [1]
  Corn plant response rating: 0
corn; [6]
  Corn plant response rating: 0
corn; [2]
  Plant response rating, Corn: 0
corn; [3]
  Corn plant response rating: 0
corn; [7]
  Corn plant response rating: 0
corn; [4]
  Corn plant response rating: 0
corn; Rate 250 g/ha, Postemergence
  Plant response rating (0 to 10; 0 is no effect, 10 is complete control), Corn: 0
corn; [5]
  Corn plant response rating: 0
crabgrass; [1]
  Crabgrass plant response rating: 1
crabgrass; [6]
  Crabgrass plant response rating: 10
crabgrass; [2]
  Plant response rating, Crabgrass: 10
crabgrass; [3]
  Crabgrass plant response rating: 0
crabgrass; [7]
  Crabgrass plant response rating: 0
crabgrass; [4]
  Crabgrass plant response rating: 10
crabgrass; Rate 250 g/ha, Postemergence
  Plant response rating (0 to 10; 0 is no effect, 10 is complete control), Crabgrass: 0
crabgrass; [5]
  Crabgrass plant response rating: 3
Giant foxtail; [1]
  Giant foxtail plant response rating: 9
Giant foxtail; [6]
  Giant foxtail plant response rating: 10
Giant foxtail; [2]
  Plant response rating, Giant foxtail: 10
Giant foxtail; [3]
  Giant foxtail plant response rating: 0
Giant foxtail; [7]
  Giant foxtail plant response rating: 0
Giant foxtail; [4]
  Giant foxtail plant response rating: 10
Giant foxtail; Rate 250 g/ha, Postemergence
  Plant response rating (0 to 10; 0 is no effect, 10 is complete control), Giant foxtail: 0
Giant foxtail; [5]
  Giant foxtail plant response rating: 0
morningglory; [1]
  Morningglory plant response rating: 0
morningglory; [6]
  Morningglory plant response rating: 0
morningglory; [2]
  Plant response rating, Morningglory: 0
morningglory; [3]
  Morningglory plant response rating: 4
morningglory; [7]
  Morningglory plant response rating: 4
morningglory; [4]
  Morningglory plant response rating: 0
morningglory; Rate 250 g/ha, Postemergence
  Plant response rating (0 to 10; 0 is no effect, 10 is complete control), Morningglory: 8
morningglory; [5]
  Morningglory plant response rating: 10
pigweed; [1]
  Redroot pigweed plant response rating: 3
pigweed; [6]
  Redroot pigweed plant response rating: 10
pigweed; [2]
  Plant response rating, Redroot pigweed: 10
pigweed; [3]
  Redroot pigweed plant response rating: 0
pigweed; [7]
  Redroot pigweed plant response rating: 2
pigweed; [4]
  Redroot pigweed plant response rating: 5
pigweed; Rate 250 g/ha, Postemergence
  Plant response rating (0 to 10; 0 is no effect, 10 is complete control), Redroot pigweed: 5
pigweed; [5]
  Redroot pigweed plant response rating: 7
rape; [1]
  Rape plant response rating: 0
rape; [6]
  Rape plant response rating: 8
rape; [2]
  Plant response rating, Rape: 10
rape; [3]
  Rape plant response rating: 0
rape; [7]
  Rape plant response rating: 0
rape; [4]
  Rape plant response rating: 4
rape; Rate 250 g/ha, Postemergence
  Plant response rating (0 to 10; 0 is no effect, 10 is complete control), Rape: 0
rape; [5]
  Rape plant response rating: 0
Sugar beet; [1]
  Sugarbeets plant response rating: 2
Sugar beet; [6]
  Sugarbeets plant response rating: 6
Sugar beet; [2]
  Plant response rating, Sugarbeets: 8
Sugar beet; [3]
  Sugarbeets plant response rating: 0
Sugar beet; [7]
  Sugarbeets plant response rating: 0
Sugar beet; [4]
  Sugarbeets plant response rating: 3
Sugar beet; Rate 250 g/ha, Postemergence
  Plant response rating (0 to 10; 0 is no effect, 10 is complete control), Sugarbeets: 3
Sugar beet; [5]
  Sugarbeets plant response rating: 5
wheat; [1]
  Wheat plant response rating: 0
wheat; [6]
  Wheat plant response rating: 0
wheat; [2]
  Plant response rating, Wheat: 0
wheat; [3]
  Wheat plant response rating: 0
wheat; [7]
  Wheat plant response rating: 0
wheat; [4]
  Wheat plant response rating: 0
wheat; Rate 250 g/ha, Postemergence
  Plant response rating (0 to 10; 0 is no effect, 10 is complete control), Wheat: 3
wheat; [5]
  Wheat plant response rating: 5
Wild oat; [1]
  Wild oats plant response rating: 0
Wild oat; [6]
  Wild oats plant response rating: 3
Wild oat; [2]
  Plant response rating, Wild oats: 3
Wild oat; [3]
  Wild oats plant response rating: 0
Wild oat; [7]
  Wild oats plant response rating: 0
Wild oat; [4]
  Wild oats plant response rating: 0
Wild oat; Rate 250 g/ha, Postemergence
  Plant response rating (0 to 10; 0 is no effect, 10 is complete control), Wild oats: 0
Wild oat; [5]
  Wild oats plant response rating: 2
Purple nutsedge; [1]
  Nutsedge plant response rating: 0
Purple nutsedge; [6]
  Nutsedge plant response rating: 0
Purple nutsedge; [3]
  Nutsedge plant response rating: 0
Purple nutsedge; [7]
  Nutsedge plant response rating: 0
Purple nutsedge; [4]
  Nutsedge plant response rating: 0
Purple nutsedge; Rate 250 g/ha, Postemergence
  Plant response rating (0 to 10; 0 is no effect, 10 is complete control), Nutsedge: 0
Purple nutsedge; [5]
  Nutsedge plant response rating: 0
rice; [8]
  Rice plant response rating: 0
rice; [9]
  Rice plant response rating: 0
rice; [10]
  Rice plant response rating: 0
rice; [11]
  Rice plant response rating: 0
Smallflower flatsedge; [8]
  S. Flatsedge plant response rating: 0
Smallflower flatsedge; [9]
  S. Flatsedge plant response rating: 0
Smallflower flatsedge; [10]
  S. Flatsedge plant response rating: 0
Smallflower flatsedge; [11]
  S. Flatsedge plant response rating: 0
Duck salad; [8]
  Ducksalad plant response rating: 0
Duck salad; [9]
  Ducksalad plant response rating: 0
Duck salad; [10]
  Ducksalad plant response rating: 0
Duck salad; [11]
  Ducksalad plant response rating: 0
bamyardgrass; [8]
  Barnyardgrass plant response rating: 0
bamyardgrass; [9]
  Barnyardgrass plant response rating: 0
bamyardgrass; [10]
  Barnyardgrass plant response rating: 0
bamyardgrass; [11]
  Barnyardgrass plant response rating: 0
